# In article PMC5034864 (Molecular microbiology, 2012):
# How the values were obtained:
# Assay in all cases: FRET of YPet-PilZ-CyPet fusion protein, titration
# Type in all cases: binding
# PA4324 = PA4324 (Pseudomonas aeruginosa, UniProt Q9HW77)
# [1] = molecular target: BcsA (STM3619) PilZ domain (Salmonella enterica, UniProt Q93IN2)
# YcgR (STM1798) = YcgR (STM1798) (Salmonella enterica, UniProt Q8ZP19)
# PA3353 = PA3353 (Pseudomonas aeruginosa, UniProt Q9HYP3)
# YcgR (STM1798), sequence (Q8ZP19 whole entry): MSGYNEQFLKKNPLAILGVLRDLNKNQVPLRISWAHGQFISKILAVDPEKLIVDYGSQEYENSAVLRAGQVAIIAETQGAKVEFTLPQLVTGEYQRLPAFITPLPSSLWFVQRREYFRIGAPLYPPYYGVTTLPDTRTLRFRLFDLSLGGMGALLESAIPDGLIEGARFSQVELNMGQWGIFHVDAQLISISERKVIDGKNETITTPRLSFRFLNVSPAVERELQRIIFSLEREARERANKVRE
# BcsA (STM3619) PilZ domain, sequence (Q93IN2 691-791): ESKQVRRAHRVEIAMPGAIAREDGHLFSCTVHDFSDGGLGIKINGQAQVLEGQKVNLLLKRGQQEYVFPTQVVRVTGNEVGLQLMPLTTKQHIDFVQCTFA
smiles,measurement,setting,value
Nc1nc2c(ncn2[C@@H]2O[C@@H]3CO[P@](=O)(O)O[C@H]4[C@@H](O)[C@H](n5cnc6c(=O)[nH]c(N)nc65)O[C@@H]4CO[P@](=O)(O)O[C@H]3[C@H]2O)c(=O)[nH]1 [c-di-GMP],Kd,PA4324,0.735 ± 0.474 µM
same,Kd,[1],8.24 ± 0.238 µM
same,Kd,YcgR (STM1798),0.191 ± 0.018 µM
same,Kd,PA3353,0.088 ± 0.017 µM
